Results: patent US20190290574A1, “TOPICAL SKIN CARE COMPOSITIONS COMPRISING MYRSINE AFRICANA EXTRACTS” (University of Pretoria, priority 2015, published 2019)
Where two headings read alike, the source gives them in different places. Values belong to the molecule of their own block, whether it stands above or below them.

Legend:
human skin = experiment: Irritancy patch test
Procedure: A sample of the ethanol extract was applied on the inner forearm of twenty (20) volunteers aged between 19-65 years using patch discs for 24 hours to determine irritancy. Visual assessments of the areas were made after 24, 48, 72 and 96 hours. Any reaction was graded as a score of 0, 0.5, 1, 2, 3, and 4, where 0 represented a no response and 4 a fiery redness, papules, oedema or bullae. The forearm of each volunteer included a positive control of sodium lauryl sulphate solution (1 g/100 mL) and a negative control of demineralised water.

[1] = target: T1, porcine pancreatic elastase (Sus scrofa, UniProt P00772); experiment: Elastase inhibition assay (release of p-nitroaniline from N-Succinyl-Ala-Ala-Ala-p-nitroanilide); assay type: biochemical; conditions: for inhibition at 5 µg/mL: 5 μg/mL; for inhibition at 10 µg/mL: 10 μg/mL; for inhibition at 25 µg/mL: 25 μg/mL; for inhibition at 50 µg/mL: 50 μg/mL; for IC50: read-out: IC50 (μg/mL) (95% Confidence Interval) (converted)
T1 construct: purchased Sigma E0258; host or cells: porcine pancreas (tissue-derived product)
T1 sequence (P00772 27-266): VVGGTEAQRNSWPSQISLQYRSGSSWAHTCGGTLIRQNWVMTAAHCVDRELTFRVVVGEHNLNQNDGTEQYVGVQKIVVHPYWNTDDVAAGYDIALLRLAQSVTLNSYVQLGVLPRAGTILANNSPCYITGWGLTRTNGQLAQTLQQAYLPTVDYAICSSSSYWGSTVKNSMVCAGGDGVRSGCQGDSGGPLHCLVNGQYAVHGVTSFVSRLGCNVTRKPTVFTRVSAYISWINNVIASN
Procedure: The pancreatic elastase inhibitory activity was determined in vitro by the spectrophotometric determination of the release of p-nitroaniline from a synthetic substrate N-Succinyl-Ala-Ala-Ala-p-nitroanilide.
A sample stock solution of 500 μg/mL and 1120 μg/mL was prepared from M. africana leaf extract and compound respectively. Briefly, 2.5 mg of extract and 2.24 mg of the compound was weighed and dissolved in 100 μL of methanol. The volume was then made up to 5 mL for the extract and to 2 mL for the compound with 100mM Tris-HCl buffer, pH 8.0. Subsequent dilutions for the assay were made as required.
An elastase inhibition assay was carried out largely as per the method of Bieth et al. (1974) with modifications. In brief, a pre-incubation mixture contained 100 mM of either Tris-HCl buffer (pH 8.0), vehicle buffer, positive control, or test sample of various concentrations together with 4.942 mU of elastase enzyme. The reagents were mixed and the mixture was pre-incubated at 37° C. for 15 min. Following pre-incubation, substrate (N-Succinyl-Ala-Ala-Ala-p-nitroanilide) was added to a final concentration of 0.338 mM and the solution was mixed and incubated at 37° C. for 30 min. The absorbance was measured at 405 nm in a micro-plate reader (Versamax, Molecular devices, USA). A control reaction was carried out without the test sample.
The % inhibition of the enzyme was calculated as follows:
IC50 was calculated using log-probit analysis.

[2] = Compound MA-NR-01 run, read-out: % Inhibition (Mean ± SEM)
[3] = MA ethanolic extract run, read-out: % Inhibition (Mean ± SEM)

Molecule: CCCCCCCCCCCCOS(=O)(=O)[O-].[Na+] [Positive Control Right, sodium lauryl sulphate]
Number of subjects with reactions after 48 hours (human skin; 20 volunteers, 48 hours): 12
Irritancy (human skin; patch test on human subjects): Irritant
Average value (human skin; patch test, 20 volunteers, results after 96 hours): 0.54
Average score (human skin; patch test, score scale 0-4, results after 96 hours): 1.03
Irritancy potential % (TP-NC)/(PC-NC) (human skin; relative to positive control sodium lauryl sulphate and negative control water): 100%

inhibition at 2.5 µg/mL ([1]; 2.5 μg/mL, Compound MA-NR-01 run, read-out: % Inhibition (Mean ± SEM)): 10.6 ± 0.32%
inhibition at 5 µg/mL [1, 2]: 21.1 ± 0.53%
inhibition at 5 µg/mL [1, 3]: 13.2 ± 2.25%
inhibition at 10 µg/mL [1, 2]: 40.1 ± 1.22%
inhibition at 10 µg/mL [1, 3]: 24.1 ± 4.5%
inhibition at 25 µg/mL [1, 2]: 58.85 ± 0.17%
inhibition at 25 µg/mL [1, 3]: 41.4 ± 0.92%
inhibition at 50 µg/mL [1, 2]: 62.1 ± 1.18%
inhibition at 50 µg/mL [1, 3]: 53.2 ± 0.56%
IC50 ([1]; run of Compound MA-NR-01 (right half of Table 1)): 45.5 µM
IC50 ([1]; run of MA ethanolic extract (left half of Table 1)): 88.9 µM
Molecule: C[C@H]1[C@H](C)CC[C@]2(C(=O)O)CC[C@]3(C)C(=CC[C@@H]4[C@@]5(C)CC[C@H](O)C(C)(C)[C@@H]5CC[C@]43C)[C@H]12 [Ursolic Acid, ursolic acid]

% Inhibition (Mean ± SEM) ([1]; 7.8125 μg/mL, Compound MA-NR-01 run): 11.79 ± 4.35%
% Inhibition (Mean ± SEM) ([1]; 15.625 μg/mL, Compound MA-NR-01 run): 4.79 ± 1.66%
% Inhibition (Mean ± SEM) ([1]; 31.25 μg/mL, Compound MA-NR-01 run): 6.76 ± 4.57%
% Inhibition (Mean ± SEM) ([1]; 62.5 μg/mL, Compound MA-NR-01 run): 5.73 ± 1.04%
% Inhibition (Mean ± SEM) ([1]; 125 μg/mL, Compound MA-NR-01 run): 13.00±1.04%
% Inhibition (Mean ± SEM) ([1]; 250 μg/mL, Compound MA-NR-01 run): 25.75 ± 1.46%
% Inhibition (Mean ± SEM) ([1]; 500 μg/mL, Compound MA-NR-01 run): 31.02 ± 1.22%
Molecule: Myrsinoside B [MA-NR-01]
